US20250268920A1, “USE OF ANDROGEN RECEPTOR-MEDIATED MECHANISMS IN THE TREATMENT OF ACUTE MYELOID LEUKEMIA” (The Penn State Research Foundation, priority 2022, published 2025)
Where two headings read alike, the source gives them in different places.

Assays:
male AML donor cells = experiment: In vivo finasteride treatment of male mice transplanted with male AML donor cells; conditions: for Survival: male AML donors (FIG. 10J)
Excerpt: (§1) To obtain the results shown in FIG. 1, we isolated bone marrow cells from CD45.1 male mice (FIG. 1A) and CD45.1 female mice (FIG. 1B). Bone marrow cells were applied to hematopoietic stem/progenitor cell isolation using a kit (EasySep™ mouse hematopoietic progenitor cell isolation kit, […], Catalog #19856) followed by red blood cell lysis. Lineage negative (Lin^−) cells were stained with fluorescent antibodies including Sca-1 and c-Kit and then sent to a Beckman Coulter MoFlo Astrios EQ Cell Sorter for sorting Sca-1^+c-Kit^+ cells. These cells were cultured in a CO2 incubator at 37° C. in the presence of MLL-AF9 virus (for AML) for six hours and then injected retro-orbitally into CD45.2 recipient mice. Recipients received sublethal irradiation (475 rads) and 1.5˜3.5×10^5 Lin^−Sca-1^+c-Kit^+ hematopoietic stem cells (HSCs). Mice were monitored for complete cell counts by bleeding retro-orbitally one month post transplantation. Retro-orbital bleeding was performed weekly.
(FIG. 10A) Upon 2° transplantation of male AML donors to male recipients, the recipient mice were treated with vehicle (PBS) or finasteride (50 mg/kg/d, i.p. injection) for one week. Then at three weeks post transplantation, mice were euthanized. […] Moreover, to observe the therapeutic effect of finasteride, we treated male recipients transplanted with male AML donors (mirroring the clinical patients) with in vivo finasteride for two weeks or extended it to four weeks (FIG. 10I). […] Thus, the disclosure includes adjusting the treatment period for male (and female) AML patients.

female AML donor cells [1] = experiment: In vivo finasteride treatment of female mice transplanted with female AML donor cells
Protocol: To mirror the patient scenario, we performed the experiment on female recipients transplanted with female AML donor cells.
(FIG. 12A) At one week after 2° transplantation of female AML donors to female recipients, we treated the mice with vehicle (PBS) or finasteride (20 mg/kg/d, i.p. injection) for two weeks.

P70 S6K = experiment: In vitro treatment of female AML cells: phosphorylation of downstream target P70 S6K; assay type: cell-based, mouse; conditions: isolated female AML cells treated in vitro (FIG. 4A)
Excerpt: as §1
(§2) To obtain the results, isolated female AML cells were treated in vitro with PI3K inhibitors (LY294002 and Wortmannin), Akt inhibitor, MTOR inhibitors (Sapanisertib and Torin1).

female AML cells = experiment: In vitro apoptosis of female AML cells (Annexin V staining); assay type: cell-based, mouse; conditions: Annexin V staining (FIG. 4B, 4C)
Excerpt: as §1, §2

female AML donor cells [2] = assay type: in vivo, mice
Excerpt: as §1
To test the effect of AR inhibition on the outcome of AML, we utilized the AR antagonist, ARN509, to treat female mice transplanted with female AML donor cells. (FIG. 7A) Following one week post-secondary) (2° transplantation of AML cells from female donors into female recipients, the recipient mice were treated with ARN509 (0, 10, 25 mg/kg/d, i.p. injection) daily for two weeks.

female AML donor cells [3] = experiment: Survival of female recipients transplanted with female AML donors treated in vitro with ARN509; assay type: in vivo, mice; conditions: female AML donors treated in vitro with ARN509 150 nM, 24 h, transplanted into female recipients (FIG. 7J)
female AML donor cells [4] = assay type: in vivo, mice; remark: listed apart in the source
Excerpt: as §1
To address if ARN509 therapy preferentially benefitted AML in female mice, we performed an experiment in which male recipient mice transplanted with female AML donors cells were treated with AR antagonist, ARN509.
(FIG. 8A) Following one week post 2° transplantation of AML cells from female donors into male recipients, we treated the mice with ARN509 (0, 10, 25 mg/kg/d, i.p. injection) for two weeks.

female AML donor cells [5] = experiment: Survival of male recipients transplanted with female AML donors treated in vitro with ARN509; assay type: in vivo, mice; conditions: female AML donors treated in vitro with ARN509 150 nM, 24 h, transplanted into male recipients (FIG. 8J)
female AML donor cells [6] = experiment: In vivo ARN509 alone or combined with finasteride in male mice transplanted with female AML donor cells; conditions: single ARN509 10 mg/kg/d i.p. for two weeks; male recipients
Protocol: (FIG. 11A) At one week post 2° transplantation of female AML donors into male recipients, the mice were treated with vehicle (PBS), ARN509 (10 mg/kg/d, i.p. injection), or combination of ARN509 (10 mg/kg/d, i.p. injection) and finasteride (20 mg/kg/d, i.p. injection), for two weeks.

[7] = finasteride 50 mg/kg/d i.p. for one week, male recipients
[8] = finasteride 20 mg/kg/d i.p. for two weeks, female recipients

With `CC(C)(C)NC(=O)[C@H]1CC[C@H]2[C@@H]3CC[C@H]4NC(=O)C=C[C@]4(C)[C@H]3CC[C@]12C` [finasteride, Finasteride] the “Generation of DHT” value (male AML donor cells; finasteride 50 mg/kg/d i.p. for one week, euthanized three weeks post transplantation (FIG. 10B)) was “decreased generation of DHT”, the “LICs in the bone marrow” value (male AML donor cells; [7]) was “decreased” and the “LICs in the spleen” value (male AML donor cells; [7]) was “decreased”. The “Lin− leukemic cells in the bone marrow” value (male AML donor cells; [7]) was “decreased”, the “Lin− leukemic cells in the spleen” value (male AML donor cells; [7]) was “decreased” and the Leukocytosis (male AML donor cells; finasteride 50 mg/kg/d i.p. for one week, male recipients (FIG. 10C)) was “significantly improved”. For the same compound, the Splenomegaly (male AML donor cells; finasteride 50 mg/kg/d i.p. for one week, male recipients (FIG. 10D)) was “significantly improved”, the Survival (male AML donor cells; four-week in vivo finasteride treatment, male recipients) was “significantly improved the survival” and the Survival (male AML donor cells; two-week in vivo finasteride treatment, male recipients) was “partially benefited the survival”. The Leukocytosis (female AML donor cells [1]; finasteride 20 mg/kg/d i.p. for two weeks from one week after transplantation, female recipients (FIG. 12B)) was “significantly improve”, the “LICs in the bone marrow” value (female AML donor cells [1]; [8]) was “decreased” and the “LICs in the spleen” value (female AML donor cells [1]; [8]) was “decreased”. The “Lin− leukemic cells in the bone marrow” value (female AML donor cells [1]; [8]) was “decreased”, the “Lin− leukemic cells in the spleen” value (female AML donor cells [1]; [8]) was “decreased” and the Splenomegaly (female AML donor cells [1]; finasteride 20 mg/kg/d i.p. for two weeks, female recipients (FIG. 12C)) was “significantly improve”. For the same compound, the Survival (female AML donor cells [1]; in vivo finasteride treatment, female recipients, female AML donors (FIG. 12K)) was “benefitted the survival”.

In the case of `CCC(=O)N1CCN(c2ccc(-n3c(=O)ccc4cnc5ccc(-c6cnc7ccccc7c6)cc5c43)cc2C(F)(F)F)CC1` [Torin1], the “Phosphorylation of the downstream target P70 S6K” value (P70 S6K) was “down-regulated” and the “Apoptosis of female AML cells” value (female AML cells) was “induced apoptosis of female AML cells significantly”.

`CNC(=O)c1ccc(N2C(=S)N(c3cnc(C#N)c(C(F)(F)F)c3)C(=O)C23CCC3)cc1F` [ARN509, Apalutamide] was tested, and the “Apoptosis of female AML cells” value (female AML cells) was “led to apoptosis of female AML cells”, the “Lin− leukemic cells in the bone marrow” value (female AML donor cells [2]; 25 mg/kg/d ARN509, female recipients (FIG. 7D)) was “decreased significantly” and the “Lin− leukemic cells in the spleen” value (female AML donor cells [2]; 25 mg/kg/d ARN509, female recipients (FIG. 7E)) was “decreased significantly”. The “LICs (leukemia-initiating cells)” value (female AML donor cells [2]; 25 mg/kg/d ARN509, female recipients (FIG. 7F, 7G)) was “decreased significantly”, the “Severity of AML” value (female AML donor cells [2]; ARN509 0, 10, 25 mg/kg/d i.p. daily for two weeks from one week post transplantation, female recipients) was “decreased the severity of AML in a dose-dependent manner” and the Leukocytosis (female AML donor cells [2]; ARN509 0, 10, 25 mg/kg/d i.p., two weeks, female recipients (FIG. 7B)) was “improved leukocytosis”. For the same compound, the Splenomegaly (female AML donor cells [2]; ARN509 0, 10, 25 mg/kg/d i.p., two weeks, female recipients (FIG. 7C)) was “improved”, the “Platelets in the peripheral blood” value (female AML donor cells [2]; mouse, in vivo) was “increase” and the Side effects (female AML donor cells [2]; mouse, in vivo) was “no apparent side effects”. For the same compound, the Survival (female AML donor cells [3]) was “significantly better survival”, the “Lin− leukemic cells in the bone marrow” value (female AML donor cells [4]; 25 mg/kg/d ARN509, male recipients (FIG. 8D)) was “decreased significantly” and the “Lin− leukemic cells in the spleen” value (female AML donor cells [4]; 25 mg/kg/d ARN509, male recipients (FIG. 8E)) was “decreased significantly”. For the same compound, the “LICs (leukemia-initiating cells)” value (female AML donor cells [4]; 25 mg/kg/d ARN509, male recipients (FIG. 8F, 8G)) was “decreased significantly”, the “Severity of AML” value (female AML donor cells [4]; ARN509 0, 10, 25 mg/kg/d i.p. for two weeks from one week post transplantation, male recipients) was “decreased the severity of AML in a dose-dependent manner” and the Leukocytosis (female AML donor cells [4]; ARN509 0, 10, 25 mg/kg/d i.p., two weeks, male recipients (FIG. 8B)) was “improved leukocytosis”. The Splenomegaly (female AML donor cells [4]; ARN509 0, 10, 25 mg/kg/d i.p., two weeks, male recipients (FIG. 8C)) was “improved”, the Body weight (female AML donor cells [4]; mouse, in vivo) was “unchanged” and the “Platelets in the peripheral blood” value (female AML donor cells [4]; mouse, in vivo) was “increase”. The Side effects (female AML donor cells [4]; mouse, in vivo) was “no apparent side effects”, the Survival (female AML donor cells [5]) was “some improvement of survival” and the Anti-leukemic effect (female AML donor cells [6]) was “not able to induce significant anti-leukemic effect”.
